Source: patent publication US20070142392A1, “Uses of rifamycins” (ActivBiotics, Inc., priority 2005, published 2007)
Converted amounts (≈) assume the structure as drawn. Where two headings read alike, the source gives them in different places.

Legend:
[1] = system: S. aureus; assay: MIC values, S. aureus (Tables 1-4); format: cell-based
[2] = system: E. faecalis; assay: MIC values, E. faecalis (Tables 1-4); format: cell-based
[3] = system: E. coli; assay: MIC values, E. coli (Tables 1-4); format: cell-based
[4] = system: S. pneumo.; assay: MIC values, S. pneumo. (Tables 1-4); format: cell-based
[5] = system: H. flu; format: cell-based
[6] = system: S. aureus; assay: minimal bactericidal concentration in the stationary growth phase (MBCstat); format: cell-based; conditions: Staphylococcus aureus, 1% glucose PBS pH 7.4 with 4% Muller Hinton Broth
Protocol: (§1) FIG. 2A is a schematic illustration showing the peak drug concentration of Compound 86 (1.13 μg/ml) in cage fluid from non-infected animals after single dose of 12.5 mg/kg. […] In this medium, bacterial counts remained stable in the absence of antibacterial agents for >36 hours.
(§2) In this medium, bacterial counts remained stable in the absence of antibacterial agents for >36 hours.
The minimal bactericidal concentration in the stationary growth phase (MBCstat) was determined by using overnight bacterial cultures which were centrifuged and resuspended in medium containing 1% glucose supplemented phosphate buffered saline (PBS) pH 7.4 with 4% Muller Hinton Broth (Zimmerli et al., J Antimicrob. Chemother. 33:959-967 (1994)). In this medium, bacterial counts remained stable in the absence of antibacterial agents for >36 hours.

[7] = in vivo; conditions: albino, guinea pig, ip
From the text: (§4) For pharmacokinetic studies, non-infected animals were used. […] Teflon tissue cages were implanted into the flanks of guinea pigs. For pharmacokinetic studies, non-infected animals were used.

[8] = system: S. aureus ATCC29213; assay: minimal bactericidal concentration for logarithmic phase growth (MBClog); format: cell-based; conditions: Staphylococcus aureus, ATCC29213, 24 hour incubation
Protocol: as §1, §2
(§3) To understand the relative efficacy of peak drug concentration, it is compared to the minimal inhibitory concentration (MIC), the minimal bactericidal concentration for logarithmic phase growth (MBClog) and the MBCstat. […] The MBClog was defined as antimicrobial concentration that reduced the original inoculum by […] after 24 hour incubation (i.e. 3 log 10 CFU/ml), as described in the Manual of Clinical Microbiology. The MBCstat was determined as described in Example 1.

[9] = guinea pig, in vivo, ip, 12.5 mg/kg
From the text: as §4

[10] = system: S. aureus ATCC29213; assay: MIC by broth dilution method; format: cell-based; conditions: Staphylococcus aureus, S. aureus ATCC29213, inoculum 5×10^5 CFU/ml, read-out: minimal inhibitory concentration (MIC)
Protocol: as §1, §2, §3

[11] = system: S. aureus; assay: Foreign-body (tissue cage) infection model, antimicrobial treatment; format: in vivo, guinea pigs; conditions: 12.5 mg/kg/12 h i.p.
Protocol: For pharmacokinetic studies, non-infected animals were used. […] Antibiotics were administered intraperitoneally every 12 hours for four days (total eight doses). […] The cure rate is the fraction of cages in which the infection was eradicated. […] Following incubation, 50 μl of the TSB mixture was plated on blood agar plates to determine the presence of bacteria. A foreign-body infection model in guinea pigs was used for in vivo analysis of antimicrobials as described in Example 2, however in this example the animals were infected. […] Antibiotics were administered intraperitoneally every 12 hours for four days (total eight doses).

SMILES	MIC S. aureus [1]	MIC E. faecalis [2]	MIC E. coli [3]	MIC S. pneumo. [4]	MIC H. flu [5]	MBC [6]	further results
CO[C@H]1/C=C/O[C@@]2(C)Oc3c(C)c(O)c4c(=O)c(c5oc6cc(N7CC8CCC(C7)N8)cc(O)c6nc-5c4c3C2=O)NC(=O)/C(C)=C\C=C\[C@H](C)[C@H](O)[C@@H](C)[C@@H](O)[C@@H](C)[C@H](O)[C@@H]1C [Compound 146]	15 ng/mL (≈ 17.3 nM)	0.12 µg/mL (≈ 138 nM)	4 µg/mL (≈ 4600 nM)	1 ng/mL (≈ 1.15 nM)	0.25 µg/mL (≈ 288 nM)		
CCOC(=O)N1CCCC2CN(c3cc(O)c4nc5c6c7c8c(C)c(O)c6c(=O)c(c-5oc4c3)NC(=O)C(C)=CC=CC(C)C(O)C(C)C(O)C(C)C(OC(C)=O)C(C)C(OC)C=COC(C)(O8)C7=O)CC21 (stereo not drawn) [Compound 147]	60 ng/mL (≈ 60.2 nM)	1 µg/mL (≈ 1000 nM)	>8 µg/mL	8 ng/mL (≈ 8.02 nM)	0.5 µg/mL (≈ 501 nM)		
CCOC(=O)N1CCCC2CN(c3cc(O)c4nc5c6c7c8c(C)c(O)c6c(=O)c(c-5oc4c3)NC(=O)C(C)=CC=CC(C)C(O)C(C)C(O)C(C)C(O)C(C)C(OC)C=COC(C)(O8)C7=O)CC21 (stereo not drawn) [Compound 148]	8 ng/mL (≈ 8.38 nM)	2 µg/mL (≈ 2090 nM)	8 µg/mL (≈ 8380 nM)	0.12 ng/mL (≈ 0.126 nM)	0.5 µg/mL (≈ 524 nM)		
COC1C=COC2(C)Oc3c(C)c(O)c4c(=O)c(c5oc6cc(N7CC8CCCN(C(C)=O)C8C7)cc(O)c6nc-5c4c3C2=O)NC(=O)C(C)=CC=CC(C)C(O)C(C)C(O)C(C)C(OC(C)=O)C1C (stereo not drawn) [Compound 149]	8 ng/mL (≈ 8.27 nM)	1 µg/mL (≈ 1030 nM)	>8 µg/mL	2 ng/mL (≈ 2.07 nM)	0.25 µg/mL (≈ 259 nM)		
COC1C=COC2(C)Oc3c(C)c(O)c4c(=O)c(c5oc6cc(N7CC8CCCN(C(C)=O)C8C7)cc(O)c6nc-5c4c3C2=O)NC(=O)C(C)=CC=CC(C)C(O)C(C)C(O)C(C)C(O)C1C (stereo not drawn) [Compound 150]	4 ng/mL (≈ 4.32 nM)	2 µg/mL (≈ 2160 nM)	>8 µg/mL	0.06 ng/mL (≈ 0.0649 nM)	0.5 µg/mL (≈ 541 nM)		
CO[C@H]1/C=C/O[C@@]2(C)Oc3c(C)c(O)c4c(=O)c(c5oc6cc(N7CC8CCC(C7)N8C)cc(O)c6nc-5c4c3C2=O)NC(=O)/C(C)=C\C=C\[C@H](C)[C@H](O)[C@@H](C)[C@@H](O)[C@@H](C)[C@H](OC(C)=O)[C@@H]1C [Compound 151]						0.156 µg/mL (≈ 169 nM)	
CO[C@H]1/C=C/O[C@@]2(C)Oc3c(C)c(O)c4c(=O)c(c5oc6cc(N7CC(N(C)C)C7)cc(O)c6nc-5c4c3C2=O)NC(=O)/C(C)=C\C=C\[C@H](C)[C@H](O)[C@@H](C)[C@@H](O)[C@@H](C)[C@H](OC(C)=O)[C@@H]1C [Compound 152]						0.469 µg/mL (≈ 522 nM)	
C[C@H]1COc2c(N3CCN(C)CC3)c(F)cc3c(=O)c(C(=O)O)cn1c23 [Levofloxacin, levofloxacin]						40 µg/mL (≈ 111000 nM)	Tmax ([7]; 5 mg/kg): 2 h; concentration at 12 h ([7]; 5 mg/kg): 10 ± 10 ng/mL
CO[C@H]1/C=C/O[C@@]2(C)Oc3c(C)c(O)c4c(O)c(c(/C=N/N5CCN(C)CC5)c(O)c4c3C2=O)NC(=O)/C(C)=C\C=C\[C@H](C)[C@H](O)[C@@H](C)[C@@H](O)[C@@H](C)[C@H](OC(C)=O)[C@@H]1C [Rifampin, rifampin, reference compound]						3.6 µg/mL (≈ 4370 nM)	AUC ([7]; 12.5 mg/kg): 4560 ng·h/mL; Cmax ([7]; 12.5 mg/kg): 980 ng/mL; Tmax ([7]; 12.5 mg/kg): 2 h; concentration at 12 h ([7]; 12.5 mg/kg): 140 ± 90 ng/mL; MBC [8]: 0.8 µg/mL (≈ 972 nM); Tmax [9]: two; MIC [10]: 0.016 µg/mL (≈ 19.4 nM); Mean log10 CFU/ml ± SD in aspirated cage fluid, during treatment ([11]; day 4): 3.68 ± 0.59 log10 CFU/ml; no. culture negative/total no., cage fluid during treatment ([11]; day 4): 11/24; Mean log10 CFU/ml ± SD in aspirated cage fluid, after treatment ([11]; day 9): 1.43 ± 0.28 log10 CFU/ml; no. culture negative/total no., cage fluid after treatment ([11]; day 9): 19/24
